# Experimental data reported in publication PMC12304285 (British Journal of Cancer, 2025).
# Values joined by “and” are separate entries in the source; they are usually repeats but may differ in a detail not shown here. Identical values can stand only once. Like-named read-outs stand apart in the source and are kept apart here.
# Key:
# [1] = Plasma and urine pharmacokinetics in patients; format: in vivo, human
# Description: Urine PK samples were collected at Cycle 0, Day 1 and at Cycle 1, Day 8 at the following timepoints: pre-dose (Cycle 0, Day 1 only), 0 to 8 h post dose and 8 to 24 h post-dose. […] Maximum observed concentration (Cmax) and time to reach Cmax (tmax) were determined directly by inspection of the concentration-time profiles. Terminal half-life slope (t½λz) was calculated as ln2/terminal elimination rate constant (λz). Area under the plasma concentration time curve from zero to last measurable concentration (AUClast) was calculated using the linear up/log down trapezoidal rule. AUClast was extrapolated to infinity using λz to obtain overall exposure (AUCinf). The amount of drug excreted unchanged in the urine (e.g. Ae0-t, Aeτ) for any given dosing interval was determined by multiplying the concentration of drug determined in the urine sample by the volume of the sample collected in that period.
# [2] = system: patients with advanced cancer
# Description: A single dose was administered during Cycle 0 and was followed by a drug washout period lasting 3–7 days. […] If either of these conditions was not met, the cohort would be expanded to a minimum of 3, and up to 6, patients in all subsequent cohorts. A Bayesian adaptive design, using all of the available data and considering the pharmacokinetics (PK) from a minimum of 2 or 3 patients enrolled into each dose cohort, was used from this point. Dose escalation was scheduled to be stopped at the maximum tolerated dose (MTD) (defined as 25% of patients in a cohort experiencing a dose-limiting toxicity [DLT] with the required precision [ratio of upper and lower 95% credible limits <5.0]), the maximum feasible dose (MFD) or the recommended Phase II dose (RP2D). Intra-patient dose escalation was permitted as long as predefined criteria were met, including that the planned next higher dose had to be declared tolerated by the SRC based on assessment of 2–6 evaluable patients.
# The starting dose of PLD was 40 mg/m^2 intravenously once every 28 days for a maximum of 6 cycles. PLD dose could be escalated to 50 mg/m^2 or de-escalated to 30 mg/m^2 every 28 days with agreement from the SRC. […] Dose escalation was scheduled to be stopped at the MTD (defined as 30% of patients in a cohort experiencing a DLT with the required precision [ratio of upper and lower 95% credible limits <5.0]). Approximately 30 evaluable patients across five cohorts (n = 3–6 per cohort) were originally planned to provide an estimate of MTD.
# Definitions of dose-limiting toxicity
# DLTs were evaluated during Cycle 0 and Cycle 1 of treatment. Toxicity was graded according to the National Cancer Institute CTCAE v5.0.
# A DLT was defined as an AE that occurs from the first dose of study treatment up to and including Cycle 1, Day 28 (the DLT assessment period) that is assessed as unrelated to the disease, intercurrent illness, or concomitant medications and that, despite optimal therapeutic interventions, meets any of the following criteria:
# Haematological Toxicities:
# • Grade 4 neutropenia lasting >4 days.
# • Grade 4 thrombocytopenia.
# • Grade 3 neutropenia (ANC ≥500 to <1000 cells/mm3) of any duration accompanied by fever ≥38.5 °C and/or systemic infection.
# • Grade 3 thrombocytopenia (25,000 to <50,000/mm3) with bleeding
# Non-haematological toxicities:
# • Confirmed laboratory abnormalities
# • Nausea or vomiting for more than three consecutive days despite administration of maximal anti-emetic therapy
# • Diarrhoea for more than three consecutive days despite administration of maximal anti- […]
# • QTc prolongation >500 milliseconds or QTcF prolongation from baseline by 60 milliseconds confirmed on at least two separate ECGs
# • Any other toxicity that is greater than at baseline AND is clinically significant and/or […]
# AND is judged to be a DLT by the SRC
# • Any treatment-related event, including significant dose reductions, omissions or delays, judged to be a DLT by the SRC. Examples may include CTCAE Grade 2 toxicities that are clinically significant and/or unacceptable according to the investigator, toxicities that […]
# the administration of study treatment in the subsequent cycle by ≥7 consecutive days DLT will not include the following:
# • Transient isolated laboratory abnormalities which are not considered clinically significant and resolve to baseline within 72 hours without any intervention […]
# • Toxicity unrelated to treatment e.g., related to the underlying disease or disease-related
compound,measurement,setting,value
"Cc1cc2ncnn2cc1Nc1ncc2c(n1)n(C1CCOCC1)c(=O)n2C [AZD7648, 7-Methyl-2-[(7-methyl[1,2,4]triazolo[1,5-a]pyridin-6-yl)amino]-9-(tetrahydro-2H-pyran-4-yl)-7,9-dihydro-8H-purin-8-one]",exposure versus dose,[1]; 5 to 160 mg BID,increased in a broadly linear manner
same,fraction excreted unchanged in urine,"[1]; human, in vivo",5–10 % of the total administered dose
same,AUC(0-inf),"[1]; human, plasma, oral, 80 mg BID cohort, Cycle 0 Day 1 single dose, read-out: geoMean AUCinf",25.2 µM·h
same,Cmax,"[1]; human, plasma, oral, 80 mg BID cohort, Cycle 0 Day 1 single dose, read-out: geoMean Cmax",2460 nM
same,Tmax,"[1]; human, plasma, 5 to 160 mg, oral",1 to 2 h
same,drug exposure achieved,[1]; one patient at the 80 mg dose level,> 1 µM
same,Any AE leading to death,[2]; 5 mg BID (n = 1),0 n (%)
same,Any AZD7648-related AE leading to death,[2]; 5 mg BID (n = 1),0 n (%)
same,Any AE leading to death,[2]; 5 mg QD (n = 1),0 n (%)
same,Any AZD7648-related AE leading to death,[2]; 5 mg QD (n = 1),0 n (%)
same,Any AE leading to death,[2]; 10 mg BID (n = 1),0 n (%)
same,Any AZD7648-related AE leading to death,[2]; 10 mg BID (n = 1),0 n (%)
same,Any AE leading to death,[2]; 20 mg BID (n = 1),0 n (%)
same,Any AZD7648-related AE leading to death,[2]; 20 mg BID (n = 1),0 n (%)
same,Any AE leading to death,[2]; 40 mg BID (n=3),0 n (%)
same,Any AZD7648-related AE leading to death,[2]; 40 mg BID (n=3),0 n (%)
same,Any AE leading to death,[2]; 80 mg BID (n = 4),1 (25.0) n (%)
same,Any AZD7648-related AE leading to death,[2]; 80 mg BID (n = 4),0 n (%)
same,Any AE leading to death,[2]; 160 mg BID (n=3),0 n (%)
same,Any AZD7648-related AE leading to death,[2]; 160 mg BID (n=3),0 n (%)
same,TEAE Anaemia,[2]; Any grade,4 (28.6) n (%)
same,TEAE Diarrhoea,[2]; Any grade,4 (28.6) n (%)
same,TEAE Nausea,[2]; Any grade,4 (28.6) n (%)
same,TEAE Neutropenia,[2]; Any grade,2 (14.3) n (%)
same,TEAE Urinary tract infection,[2]; Any grade,2 (14.3) n (%)
same,TEAE Vomiting,[2]; Any grade,4 (28.6) n (%)
same,"Any treatment-related grade 3/4 AE, related to AZD7648",[2]; all dose levels,4 (28.6) n (%)
same,Death,[2]; all dose levels,4 (28.6) n (%)
same,patients with nausea,[2]; all dose levels,28.6% and ~ 30%
same,patients with neutropenia,[2]; all dose levels,14.3%
same,patients with vomiting,[2]; all dose levels,28.6% and ~ 30%
same,Any AE,"[2]; human, in vivo",12 (85.7) n (%)
same,Any DLT,"[2]; human, in vivo",1 (7.1) n (%)
same,Any SAE,"[2]; human, in vivo",5 (35.7) n (%)
same,TEAE Anaemia,"[2]; human, in vivo",1 (7.1) n (%)
same,TEAE Diarrhoea,"[2]; human, in vivo",1 (7.1) n (%)
same,TEAE Nausea,"[2]; human, in vivo",0 n (%)
same,TEAE Neutropenia,"[2]; human, in vivo",1 (7.1) n (%)
same,TEAE Urinary tract infection,"[2]; human, in vivo",0 n (%)
same,TEAE Vomiting,"[2]; human, in vivo",0 n (%)
same,patients with gastrointestinal disorders,"[2]; human, in vivo",64.3%
same,patients who experienced TEAEs,"[2]; human, in vivo, 2.9 months",85.7%
same,patients with abdominal pain,"[2]; human, in vivo, 2.9 months",~ 20%
same,patients with decreased appetite,"[2]; human, in vivo, 2.9 months",~ 20%
same,patients with fatigue,"[2]; human, in vivo, 2.9 months",~ 20%
same,maximum tolerated dose (MTD),"[2]; monotherapy, escalation paused at 160 mg BID continuous dosing",an MTD could not be declared
same,DLT reported (nature),"[2]; one patient, AZD7648 160 mg BID",grade 4 increased alanine aminotransferase (ALT) and aspartate aminotransferase (AST)
